Measured values reported in ChEMBL document CHEMBL2074283, “Interaction of pristinamycin IA with P-glycoprotein in human intestinal epithelial cells” (Eur J Pharmacol, 1995).
Bridge positions count the residues as written; N and C are the ends. Square brackets hold non-standard residues; d marks the D form. Peptide text beside a SMILES is read from it. * marks the point of attachment. NMePhe(4-NMe2) = CN[C@@H](Cc1ccc(N(C)C)cc1)C(=O)O; Pip(4-oxo) = O=C1CCN[C@H](C(=O)O)C1; Picolinoyl(3-OH) = O=C(c1ncccc1O)*; Phg = N[C@H](C(=O)O)c1ccccc1; dAbu = CC[C@@H](N)C(=O)O

Experiments:
[1] = biological target: ATP-dependent translocase ABCB1 (Homo sapiens, UniProt P08183); assay: TP_TRANSPORTER: transepithelial transport (basal to apical) in Caco-2 cells; type: functional, cell-based
P-glycoprotein (ABCB1) = P-glycoprotein (ABCB1) (Homo sapiens, UniProt P08183); assay: TP_TRANSPORTER: inhibition of Vinblastine transepithelial transport (basal to apical) (Vinblastine: 0.05 uM, Pristinamycin IA: 100 uM) in Caco-2 cells; type: functional, cell-based; conditions: Caco-2, probe Vinblastine 0.05 uM
Chain of P-glycoprotein (ABCB1) (P08183 whole entry): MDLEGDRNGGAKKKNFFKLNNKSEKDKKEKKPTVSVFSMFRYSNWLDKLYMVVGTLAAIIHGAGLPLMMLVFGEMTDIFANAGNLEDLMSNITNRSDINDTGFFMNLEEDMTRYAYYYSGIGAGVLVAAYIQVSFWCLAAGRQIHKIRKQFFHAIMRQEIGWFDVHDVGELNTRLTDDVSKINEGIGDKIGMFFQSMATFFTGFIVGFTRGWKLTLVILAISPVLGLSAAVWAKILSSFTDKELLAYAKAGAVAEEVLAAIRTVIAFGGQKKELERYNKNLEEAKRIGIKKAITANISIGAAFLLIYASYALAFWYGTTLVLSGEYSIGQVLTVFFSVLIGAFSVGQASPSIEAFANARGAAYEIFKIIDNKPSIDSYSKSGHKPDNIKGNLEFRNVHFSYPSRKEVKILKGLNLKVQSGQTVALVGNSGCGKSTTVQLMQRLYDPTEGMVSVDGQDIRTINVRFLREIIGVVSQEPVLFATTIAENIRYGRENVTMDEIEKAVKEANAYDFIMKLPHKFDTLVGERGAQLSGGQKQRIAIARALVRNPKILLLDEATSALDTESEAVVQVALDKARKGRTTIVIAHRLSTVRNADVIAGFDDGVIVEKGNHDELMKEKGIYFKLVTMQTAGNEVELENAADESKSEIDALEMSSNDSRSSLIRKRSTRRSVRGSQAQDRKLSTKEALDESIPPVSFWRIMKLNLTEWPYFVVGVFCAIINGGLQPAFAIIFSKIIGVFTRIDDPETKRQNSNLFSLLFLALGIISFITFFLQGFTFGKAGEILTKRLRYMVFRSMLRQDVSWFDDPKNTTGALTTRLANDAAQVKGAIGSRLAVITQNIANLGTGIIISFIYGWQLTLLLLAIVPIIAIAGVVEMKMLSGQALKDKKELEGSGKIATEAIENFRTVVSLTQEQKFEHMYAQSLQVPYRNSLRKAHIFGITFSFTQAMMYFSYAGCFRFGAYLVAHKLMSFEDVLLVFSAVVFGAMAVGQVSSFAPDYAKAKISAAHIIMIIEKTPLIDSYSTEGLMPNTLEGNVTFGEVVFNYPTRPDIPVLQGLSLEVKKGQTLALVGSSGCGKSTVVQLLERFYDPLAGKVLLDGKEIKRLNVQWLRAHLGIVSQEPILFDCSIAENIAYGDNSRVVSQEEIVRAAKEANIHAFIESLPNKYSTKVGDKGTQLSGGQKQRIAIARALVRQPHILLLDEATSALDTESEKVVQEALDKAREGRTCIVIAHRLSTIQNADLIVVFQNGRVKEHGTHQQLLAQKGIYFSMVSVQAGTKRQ

Chain of ATP-dependent translocase ABCB1 (P08183 whole entry): as above

Activity [1]: substrate [+]
inhibition at 100 µM (P-glycoprotein (ABCB1)): 55%
Structure (SMILES): CC[C@H]1NC(=O)[C@@H](NC(=O)c2ncccc2O)[C@@H](C)OC(=O)[C@H](c2ccccc2)NC(=O)[C@@H]2CC(=O)CCN2C(=O)[C@H](Cc2ccc(N(C)C)cc2)N(C)C(=O)[C@@H]2CCCN2C1=O [PRISTINAMYCIN 1A] ({Picolinoyl(3-OH)}-T[dAbu]P[NMePhe(4-NMe2)][Pip(4-oxo)][Phg]; ester 1-C)
